Experimental data published in ChEMBL document CHEMBL5143725, “Optimization of TEAD P-Site Binding Fragment Hit into In Vivo Active Lead MSC-4106” (J Med Chem, 2022).

Columns and labels:
[1] = Inhibition of YAP/TAZ-TEAD interaction in human SK-HEP1 cells incubated for 24 hrs by luciferase reporter gene assay; assay type: cell-based
[2] = Microsomal stability in human microsomes measured per 10^6 cells; assay type: ADME, Microsome
[3] = Microsomal stability in mouse microsomes measured per 10^6 cells; assay type: ADME, Microsome
[4] = target: T1, Transcriptional enhancer factor TEF-1 (Homo sapiens, UniProt P28347); assay: Binding affinity to human TEAD1 (209 to 426 residues) expressed in Escherichia coli BL21 Star (DE3) by surface plasmon resonance assay
T1 sequence (P28347 whole entry, the tested form may be a part): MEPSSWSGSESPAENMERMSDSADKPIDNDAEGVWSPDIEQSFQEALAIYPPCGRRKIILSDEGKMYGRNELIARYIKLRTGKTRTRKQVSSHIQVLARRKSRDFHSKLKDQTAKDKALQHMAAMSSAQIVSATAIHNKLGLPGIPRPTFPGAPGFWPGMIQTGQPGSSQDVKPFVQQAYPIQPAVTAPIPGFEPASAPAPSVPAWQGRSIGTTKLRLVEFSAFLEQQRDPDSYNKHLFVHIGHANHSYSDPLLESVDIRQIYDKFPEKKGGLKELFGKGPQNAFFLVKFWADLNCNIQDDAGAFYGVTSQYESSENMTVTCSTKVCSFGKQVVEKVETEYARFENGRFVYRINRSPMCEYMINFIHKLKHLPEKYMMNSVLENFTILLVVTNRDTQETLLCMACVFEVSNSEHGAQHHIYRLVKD

[5] = target: T2, Transcriptional enhancer factor TEF-4 (Homo sapiens, UniProt Q15562); assay: Binding affinity to human TEAD2 (217 to 447 residues) expressed in Escherichia coli BL21 Star (DE3) by surface plasmon resonance assay
T2 sequence (Q15562 whole entry, the tested form may be a part): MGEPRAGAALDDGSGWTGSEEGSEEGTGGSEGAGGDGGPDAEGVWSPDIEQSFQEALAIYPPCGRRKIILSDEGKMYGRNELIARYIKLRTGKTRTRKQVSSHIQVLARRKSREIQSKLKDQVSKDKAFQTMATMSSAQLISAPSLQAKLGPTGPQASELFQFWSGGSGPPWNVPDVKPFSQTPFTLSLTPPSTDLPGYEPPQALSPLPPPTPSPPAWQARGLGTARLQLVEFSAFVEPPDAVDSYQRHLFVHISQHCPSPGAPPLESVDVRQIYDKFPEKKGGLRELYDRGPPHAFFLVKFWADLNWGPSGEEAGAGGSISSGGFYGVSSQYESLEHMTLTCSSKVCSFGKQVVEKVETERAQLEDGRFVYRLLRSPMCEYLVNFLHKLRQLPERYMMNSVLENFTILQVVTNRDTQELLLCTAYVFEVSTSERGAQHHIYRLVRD

[6] = target: T3, Transcriptional enhancer factor TEF-3 (Homo sapiens, UniProt Q15561); assay: Binding affinity to human TEAD4 (217 to 434 residues) expressed in Escherichia coli BL21 Star (DE3) by surface plasmon resonance assay
T3 sequence (Q15561 whole entry, the tested form may be a part): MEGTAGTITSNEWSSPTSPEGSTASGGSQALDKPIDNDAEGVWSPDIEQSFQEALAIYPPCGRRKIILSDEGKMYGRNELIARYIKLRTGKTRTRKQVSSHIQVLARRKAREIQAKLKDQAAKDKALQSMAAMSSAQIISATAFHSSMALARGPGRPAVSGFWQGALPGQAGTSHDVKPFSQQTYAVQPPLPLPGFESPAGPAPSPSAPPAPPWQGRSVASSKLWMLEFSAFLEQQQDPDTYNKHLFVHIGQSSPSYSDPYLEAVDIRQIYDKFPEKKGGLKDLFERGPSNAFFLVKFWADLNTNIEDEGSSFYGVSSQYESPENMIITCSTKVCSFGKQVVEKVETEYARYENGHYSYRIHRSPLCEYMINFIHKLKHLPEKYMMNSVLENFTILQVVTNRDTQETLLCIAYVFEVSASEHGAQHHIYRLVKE

[7] = target: T3, Transcriptional enhancer factor TEF-3; assay: Binding affinity to human TEAD4 (217 to 434 residues) expressed in Escherichia coli BL21 Star (DE3) assessed as change in melting temperature incubated for 2 hr by measuring tryptophane fluorescence by Nano Differential scanning fluorometry
[8] = target: T3, Transcriptional enhancer factor TEF-3; assay: Inhibition of pSF-CMV-P-FLAG tagged human TEAD4 palmitoylation transfected in HEK293 cells at 10 uM incubated for 6 hrs by Western blot analysis relative to control; assay type: cell-based
[9] = target: T4, Transcriptional enhancer factor TEF-5 (Homo sapiens, UniProt Q99594); assay: Inhibition of pSF-CMV-P-FLAG tagged human TEAD3 palmitoylation transfected in HEK293 cells at 10 uM incubated for 6 hrs by Western blot analysis relative to control; assay type: cell-based
T4 sequence (Q99594 whole entry, the tested form may be a part): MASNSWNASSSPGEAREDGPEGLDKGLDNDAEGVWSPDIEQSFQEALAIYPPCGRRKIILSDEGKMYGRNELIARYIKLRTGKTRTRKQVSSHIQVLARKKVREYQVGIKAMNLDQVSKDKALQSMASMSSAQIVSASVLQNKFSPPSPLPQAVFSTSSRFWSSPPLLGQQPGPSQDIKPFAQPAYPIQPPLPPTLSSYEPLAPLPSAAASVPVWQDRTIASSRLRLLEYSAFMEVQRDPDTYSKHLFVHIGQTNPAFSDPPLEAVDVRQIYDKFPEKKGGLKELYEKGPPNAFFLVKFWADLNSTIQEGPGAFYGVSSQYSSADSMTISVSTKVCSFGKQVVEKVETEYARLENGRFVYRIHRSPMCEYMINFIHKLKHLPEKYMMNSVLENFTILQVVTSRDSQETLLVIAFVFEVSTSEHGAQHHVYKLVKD

[10] = target: T4, Transcriptional enhancer factor TEF-5; assay: Binding affinity to human TEAD3 (216 to 435 residues) expressed in Escherichia coli BL21 Star (DE3) assessed as change in melting temperature incubated for 2 hrs by measuring tryptophane fluorescence by Nano Differential scanning fluorometry
[11] = target: T2, Transcriptional enhancer factor TEF-4; assay: Inhibition of pSF-CMV-P-FLAG tagged human TEAD2 palmitoylation transfected in HEK293 cells at 10 uM incubated for 6 hrs by Western blot analysis relative to control; assay type: cell-based
[12] = target: T1, Transcriptional enhancer factor TEF-1; assay: Inhibition of pSF-CMV-P-FLAG tagged human TEAD1 palmitoylation transfected in HEK293 cells at 10 uM incubated for 6 hrs by Western blot analysis relative to control; assay type: cell-based
[13] = test system: NCI-H226; assay: Cytotoxicity against human NCI-H226 cells assessed as cell viability at 10 uM measured for 7 days by celltiter-glo assay; assay type: functional, cell-based; conditions: NCI-H226, 168 h
[14] = target: T1, Transcriptional enhancer factor TEF-1; assay: Binding affinity to human TEAD1 (209 to 426 residues) expressed in Escherichia coli BL21 Star (DE3) assessed as change in melting temperature incubated for 2 hrs by measuring tryptophane fluorescence by Nano Differential scanning fluorometry
[15] = target: T2, Transcriptional enhancer factor TEF-4; assay: Binding affinity to human TEAD2 (217 to 447 residues) expressed in Escherichia coli BL21 Star (DE3) assessed as change in melting temperature incubated for 2 hrs by measuring tryptophane fluorescence by Nano Differential scanning fluorometry
[16] = Microsomal stability in mouse hepatocyte measured per 10^6 cells; assay type: ADME, cell-based; conditions: hepatocytes
[17] = Microsomal stability in human hepatocyte measured per 10^6 cells; assay type: ADME, cell-based; conditions: hepatocytes
[18] = Solubility of the compound in PBS buffer at pH 7.4; assay type: physicochemical
[19] = Solubility of the compound in SGF buffer at pH 1.2; assay type: physicochemical
[20] = target: T2, Transcriptional enhancer factor TEF-4; assay: Binding affinity to human TEAD2 (217 to 447 residues) expressed in Escherichia coli BL21 Star (DE3) assessed as change in melting temperature incubated for 2 hrs measuring scattering fluorescence by Nano Differential scanning fluorometry
[21] = target: T1, Transcriptional enhancer factor TEF-1; assay: Binding affinity to human TEAD1 (209 to 426 residues) expressed in Escherichia coli BL21 Star (DE3) assessed as change in melting temperature incubated for 2 hrs by measuring scattering fluorescence by Nano Differential scanning fluorometry
[22] = target: T4, Transcriptional enhancer factor TEF-5; assay: Binding affinity to human TEAD3 (216 to 435 residues) expressed in Escherichia coli BL21 Star (DE3) assessed as change in melting temperature incubated for 2 hrs by measuring scattering fluorescence by Nano Differential scanning fluorometry

Cn1cc2c3nc(C(=O)O)ccc3n(-c3ccc(C(F)(F)F)cc3)c2n1
IC50 [1]: 16 nM

O=C(O)c1ccc2c(cnn2C2CCCC2)c1
IC50 [1]: > 30 nM

Cn1cc2c(n1)c1cc(C(=O)O)ccc1n2-c1ccc(C(F)(F)F)cc1
IC50 [1]: 9 nM

Cn1cc2c3cc(C(=O)O)ccc3n(-c3ccc(F)cc3)c2n1
IC50 [1]: 163 nM

Cn1cc2c3cc(C(=O)O)ccc3n(-c3cccc(OC(F)(F)F)c3)c2n1
IC50 [1]: 11 nM

Cn1cc2c3cc(C(=O)O)ccc3n(-c3ccc(C(F)(F)F)c(F)c3)c2n1
IC50 [1]: 4 nM

Cn1cc2c3cc(C(=O)O)ccc3n(-c3ccc(OC(F)(F)F)cc3F)c2n1
IC50 [1]: 27 nM

Cn1cc2c3cc(C(=O)O)ccc3n(C34CC(C(F)(F)F)(C3)C4)c2n1
Stability [2]: < 10 µL/min | Stability [3]: < 10 µL/min | IC50 [1]: 33 nM

Cn1cc2c(n1)[nH]c1ccc(C(=O)O)cc12
IC50 [1]: > 30000 nM

Cn1cc2c3cc(C(=O)O)cnc3n(-c3ccc(C(F)(F)F)cc3)c2n1
IC50 [1]: 6 nM

CCCc1nn(C2CCC(F)(F)CC2)c2ccc(C(=O)O)cc12
Kd [4]: 5800 nM | Kd [5]: 43000 nM | Kd [6]: 7600 nM | IC50 [1]: 1.1 nM

Cn1ncc2c3cc(C(=O)O)ccc3n(-c3ccc(C(F)(F)F)cc3)c21
IC50 [1]: 16.6 nM

Cn1ncc2c1c1cc(C(=O)O)ccc1n2-c1ccc(C(F)(F)F)cc1
IC50 [1]: 48 nM

O=C(O)c1ccc2c(cnn2C2CCC(F)(F)CC2)c1
IC50 [1]: 14 nM

Cn1cc2c3cc(C(=O)O)ccc3n(C3CC4(C3)CC(F)(F)C4)c2n1
Stability [2]: < 10 µL/min | Stability [3]: < 10 µL/min | IC50 [1]: 33 nM

O=C(O)c1ccc2c(c1)c1c[nH]nc1n2-c1ccc(C(F)(F)F)cc1
IC50 [1]: 138 nM

CCn1cc2c3cc(C(=O)O)ccc3n(-c3ccc(C(F)(F)F)cc3)c2n1
IC50 [1]: 3 nM

Cn1cc2c3cc(C(=O)O)ccc3n(CC3CCC(C(F)(F)F)CC3)c2n1 (stereo not given)
IC50 [1]: 30 nM

O=C(O)c1cnc2c(cnn2C2CCC(F)(F)CC2)c1
IC50 [1]: 28 nM

CCCn1cc2c3cc(C(=O)O)ccc3n(-c3ccc(C(F)(F)F)cc3)c2n1
IC50 [1]: 7 nM

Cn1cc2c(n1)c1cc(C(=O)O)ccc1n2C1CCCC1
IC50 [1]: 17 nM

CNS(=O)(=O)c1ccc(Nc2ccc(C(F)(F)F)cc2)c(-c2cn(C)cn2)c1
ΔTm [7]: 3.5 °C | inhibition [8]: 70% | inhibition [9]: 29% | ΔTm [10]: 2 °C | inhibition [11]: 69% | inhibition [12]: 97% | IC50 [1]: 1 nM | IC50 [13]: 3 nM | ΔTm [14]: 10.2 °C | ΔTm [15]: 7.2 °C

O=c1[nH]c(-c2nccnc2Nc2ccc(C(F)(F)F)cc2)no1
ΔTm [7]: 9.8 °C | inhibition [8]: 91% | inhibition [9]: 83% | ΔTm [10]: 8.2 °C | inhibition [11]: 86% | inhibition [12]: 97% | IC50 [1]: 15 nM | IC50 [13]: 110 nM | ΔTm [14]: 11.2 °C | ΔTm [15]: 12.3 °C

C#CCn1cc2c3cc(C(=O)O)ccc3n(-c3ccc(C(F)(F)F)cc3)c2n1
Stability [16]: > 20 µL/min | Stability [17]: > 20 µL/min | IC50 [1]: 4 nM

O=C(O)c1ccc2c(c1)c1cn(C(F)(F)F)nc1n2-c1ccc(C(F)(F)F)cc1
Stability [17]: < 4 µL/min | IC50 [1]: 7 nM

Cn1cc2c(n1)c1cc(C(=O)O)ccc1n2C1CCCCC1
IC50 [1]: 0.73 nM

Cn1cc2c3cc(C(=O)O)ccc3n(C3CCCCC3)c2n1
IC50 [1]: 0.16 nM

Cn1cc2c3cc(C(=O)O)ccc3n(-c3ccc(C(F)(F)F)nc3)c2n1
IC50 [1]: 14 nM

C[C@H](NC(=O)c1ccc2c(-c3ccc(C(F)(F)F)cc3)cccc2c1)c1cccc(N)n1
ΔTm [7]: 1.3 °C | inhibition [8]: 93% | inhibition [9]: 91% | ΔTm [10]: 13.4 °C | inhibition [11]: 87% | inhibition [12]: 92% | IC50 [1]: 30 nM | IC50 [13]: 20 nM | ΔTm [14]: 14.5 °C | ΔTm [15]: 13.4 °C

Cn1cc2c3cc(C(=O)O)ccc3n(CCC(C)(C)C(F)(F)F)c2n1
Stability [2]: < 10 µL/min | solubility [18]: > 40 µg/mL | Stability [3]: < 10 µL/min | solubility [19]: < 1 µg/mL | IC50 [1]: 83 nM

C[C@@H](NC(=O)c1ccc2c(-c3ccc(C(F)(F)F)cc3)cccc2c1)c1cccc(N)n1
ΔTm [7]: 1.3 °C | inhibition [8]: 66% | inhibition [9]: 91% | ΔTm [10]: 5.9 °C | inhibition [11]: 51% | inhibition [12]: 83% | IC50 [1]: 900 nM | IC50 [13]: 661 nM | ΔTm [14]: 5.5 °C | ΔTm [15]: 3.8 °C

Cn1cc2c3cc(C(=O)O)ccc3n(C)c2n1
Stability [2]: < 10 µL/min | Stability [3]: < 10 µL/min | IC50 [1]: > 30000 nM

O=C(O)c1cnc2c(cnn2C2CCCCC2)c1
IC50 [1]: 5.2 nM

Cn1cc2c3cc(C(=O)O)ccc3n(C3CCC(C(F)(F)F)CC3)c2n1 (stereo not given)
solubility [18]: > 40 µg/mL | solubility [19]: < 1 µg/mL | IC50 [1]: 42 nM

N#CCn1cc2c3cc(C(=O)O)ccc3n(-c3ccc(C(F)(F)F)cc3)c2n1
IC50 [1]: 27 nM

COC1CCC(Cn2c3ccc(C(=O)O)cc3c3cn(C)nc32)CC1 (stereo not given)
IC50 [1]: 250 nM

Cn1cc2c3cc(C(=O)O)ccc3n(-c3ccc(OC(F)(F)F)cc3)c2n1
Stability [2]: 12 µL/min | Stability [17]: 19 µL/min | IC50 [1]: 3 nM

Cc1nccnc1-c1nn2c(=O)cc(-c3ccc(C4CCCCC4)cc3)[nH]c2c1C(=O)N1CC(CF)C1
ΔTm [20]: 9.5 °C | ΔTm [7]: 14.9 °C | ΔTm [21]: 7.6 °C | inhibition [8]: 88% | ΔTm [22]: 6.9 °C | inhibition [9]: 91% | inhibition [11]: 86% | inhibition [12]: 84% | IC50 [1]: 36 nM | IC50 [13]: 82 nM

Cn1cc2c3cc(C(=O)O)ncc3n(-c3ccc(C(F)(F)F)cc3)c2n1
IC50 [1]: 39 nM

Cn1cc2c3cc(C(=O)O)ccc3n(CC3CC(C(F)(F)F)C3)c2n1 (stereo not given)
Stability [2]: < 10 µL/min | solubility [18]: > 40 µg/mL | Stability [3]: < 10 µL/min | solubility [19]: < 1 µg/mL | IC50 [1]: 52 nM

Cn1cc2c3cc(C(=O)O)ccc3n(-c3cccc(C(F)(F)F)c3)c2n1
IC50 [1]: 46 nM

O=C(O)c1cnc2c(cnn2C2CCCC2)c1
IC50 [1]: 16 nM

Cn1cc2c3cc(C(=O)O)ccc3n(-c3ccc(C(F)(F)F)cn3)c2n1
IC50 [1]: 5 nM

C[C@H](NC(=O)c1ccc2c(-c3ccc(C(F)(F)F)cc3)cccc2c1)c1ccccn1
ΔTm [7]: -2.25 °C | inhibition [8]: 93% | inhibition [9]: 93% | ΔTm [10]: 10.1 °C | inhibition [11]: 87% | inhibition [12]: 93% | IC50 [1]: 25 nM | IC50 [13]: 42 nM | ΔTm [14]: 10.8 °C | ΔTm [15]: 9.8 °C

Cn1cc2c3cc(C(=O)O)ccc3n(CC3CCCCC3)c2n1
solubility [18]: > 40 µg/mL | solubility [19]: < 1 µg/mL | IC50 [1]: 96 nM

CNS(=O)(=O)c1ccc(NCc2ccccc2)c(-c2cn(C)cn2)c1
ΔTm [7]: -0.1 °C | inhibition [8]: 19% | inhibition [9]: 10% | ΔTm [10]: 0.4 °C | inhibition [11]: 33% | inhibition [12]: 96% | IC50 [1]: 29 nM | IC50 [13]: 140 nM | ΔTm [14]: 3.4 °C | ΔTm [15]: -0.7 °C
